US20260345723A1, “Treatments for Opioid-Induced Respiratory Depression” (priority 2023, published 2026)

Experiments:
[1] = tested on: CXCR4; conditions: cited from earlier work
[2] = tested on: CCR2; conditions: selective CCR2 receptor antagonists, mice; cited from earlier work
[3] = tested on: CCR2; conditions: pretreatment with CCR2 antagonist; cited from earlier work
[4] = tested on: tolerance to morphine; conditions: in vivo; cited from earlier work
[5] = tested on: chemokine release; conditions: cited from earlier work
[6] = tested on: morphine-induced respiratory depression; conditions: rat, in vivo
[7] = tested on: IBA1 mRNA; conditions: rat, in vivo
[8] = tested on: CXCR4; conditions: rat, in vivo
[9] = tested on: CCR2; conditions: rat, in vivo
[10] = tested on: CCR5; conditions: rat, in vivo
[11] = tested on: mu-opioid receptor (OPRM1); conditions: rat, in vivo
[12] = tested on: GFAP mRNA; conditions: rat, in vivo
[13] = tested on: CXCR4; conditions: pretreatment, hypoxic neonatal rats; cited from earlier work
[14] = tested on: CCR5; conditions: CCR5 antagonist, rats; cited from earlier work
[15] = tested on: CCR5; conditions: cited from earlier work

c1cc(CN2CCCNCCNCCCNCC2)ccc1CN1CCCNCCNCCCNCC1 [AMD3100]
CXCR4 antagonism [1]: antagonist of CXCR4
mobilization of hematopoietic stem cells [1]: mobilize hematopoietic stem cells

COc1ccc(C2(O)CCC(N3CC[C@@H](NC(=O)CNC(=O)c4cccc(C(F)(F)F)c4)C3)CC2)cn1 (stereo partly shown) [INCB 3284]
methamphetamine-induced place conditioning [2]: reduce

Cc1ccc2c(c1)C1(CCN(CCc3nc(-c4ccccc4)oc3C)CC1)OC(=O)N2 [RS504393]
methamphetamine-induced place conditioning [2]: reduce

O=C1Nc2ccccc2C2(CCN(CCc3ccc(C(F)(F)F)cc3)CC2)O1 [RS-102895]
inflammation caused by CCL2 [3]: inhibited

CN(C)c1ccc(O)c2c1C[C@H]1C[C@H]3[C@H](N(C)C)C(O)=C(C(N)=O)C(=O)[C@@]3(O)C(O)=C1C2=O [minocycline]
tolerance to morphine [4]: attenuates tolerance to morphine
chemokine release [5]: inhibits chemokine release

CN1CC[C@]23c4c5ccc(O)c4O[C@H]2[C@@H](O)C=C[C@H]3[C@H]1C5 [morphine, reference compound]
SpO2 (oxygen saturation) [6]: under 90%
cumulative SpO2 [6]: significantly reduced SpO2
cumulative respiratory rate [6]: significantly increased respiratory rate
microglial gene expression, VTA, NAC, PFC [7]: not altered
CXCR4 protein levels, VTA [8]: significantly enhanced CXCR4 protein levels
CCR2 protein levels, NAC [9]: significantly reduced CCR2 protein levels
CCR2 protein levels, PFC [9]: significantly enhanced CCR2 protein levels
CCR2 protein levels, VTA [9]: significantly enhanced CCR2 protein levels
CCR5 protein levels, NAC [10]: significantly reduced CCR5 protein levels
CCR5 protein levels, VTA [10]: did not significantly change
OPRM1 protein levels, VTA [11]: significantly increased OPRM1 protein levels
GFAP mRNA levels, NAC [12]: significantly enhanced
GFAP mRNA levels, VTA and PFC [12]: no significant changes were detected

dexamethasone
CXCR4 receptors [13]: downregulates CXCR4 receptors
neuroprotection [13]: induces neuroprotection

maraviroc
locomotor-activating effects of cocaine [14]: reduce
rewarding efficacy of cocaine [14]: reduce
HIV entry into cells that express CCR5 [15]: inhibits the entry
